Measurements published in ChEMBL document CHEMBL1201862, “PubChem BioAssay data set” (2004).
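1) Cells in 96-well plates. 2) Compound, 48 h, 5 concentrations. 3) Linear interpolation between surrounding doses. 4) Unreached endpoint = highest concentration. GI50 is the concentration that inhibits growth by half.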 Activity calls are given as the source filed them. Rule as the data show it: active = GI50 up to about 1.1 µM and inactive = higher.

Columns and labels:
Experiment in all cases: NCI anticancer screen, dose series, 48 h
SK-MEL-28 = test system: SK-MEL-28
SNB-75 = test system: SNB-75
A549 = test system: A549
DU-145 = test system: DU-145
RPMI-8226 = test system: RPMI-8226
Hs-578T = test system: Hs-578T
OVCAR-4 = test system: OVCAR-4
OVCAR-8 = test system: OVCAR-8
NCI-H460 = test system: NCI-H460
T47D = test system: T47D
PC-3 = test system: PC-3
RXF 393 = test system: RXF 393
HOP-92 = test system: HOP-92
OVCAR-5 = test system: OVCAR-5
HCT-15 = test system: HCT-15
HOP-62 = test system: HOP-62
OVCAR-3 = test system: OVCAR-3
UACC-62 = test system: UACC-62
KM12 = test system: KM12
HCT-116 = test system: HCT-116
SF-295 = test system: SF-295
ACHN = test system: ACHN
SNB-19 = test system: SNB-19
SK-MEL-5 = test system: SK-MEL-5
786-0 = test system: 786-0
SW-620 = test system: SW-620
MOLT-4 = test system: MOLT-4
BT-549 = test system: BT-549
CAKI-1 = test system: CAKI-1
SR = test system: SR
NCI/ADR-RES = test system: NCI/ADR-RES
MDA-MB-435 = test system: MDA-MB-435
MDA-MB-231 = test system: MDA-MB-231
SF-268 = test system: SF-268
U-251 = test system: U-251
HT-29 = test system: HT-29
EKVX = test system: EKVX
MDA-N = test system: MDA-N
SK-MEL-2 = test system: SK-MEL-2
HL-60 = test system: HL-60
MCF7 = test system: MCF7
TK-10 = test system: TK-10
M14 = test system: M14
COLO 205 = test system: COLO 205
UACC-257 = test system: UACC-257
K562 = test system: K562
NCI-H226 = test system: NCI-H226
NCI-H522 = test system: NCI-H522
Malme-3M = test system: Malme-3M
UO-31 = test system: UO-31
SN12C = test system: SN12C
IGROV-1 = test system: IGROV-1
LOX IMVI = test system: LOX IMVI
SK-OV-3 = test system: SK-OV-3
NCI-H23 = test system: NCI-H23
A498 = test system: A498
SF-539 = test system: SF-539
HCC 2998 = test system: HCC 2998
CCRF-CEM = test system: CCRF-CEM

Measured: GI50

CCC1c2[nH]c3ccccc3c2C[C@H]2C(=O)NC(CCCCNC(=O)OC(C)(C)C)C(=O)N12 (some centres undefined)
31 µM: HCT-15
inactive: SK-MEL-28 41.1 µM | SNB-75 15.3 µM | A549 34.3 µM | DU-145 48.4 µM | RPMI-8226 24.5 µM | Hs-578T 19.7 µM | OVCAR-4 28.2 µM | OVCAR-8 33 µM | NCI-H460 30.1 µM | T47D 31 µM | PC-3 22.7 µM | RXF 393 30.5 µM | HOP-92 34 µM | OVCAR-5 68.4 µM | HOP-62 35.4 µM | OVCAR-3 18.4 µM | UACC-62 20.5 µM | KM12 18.5 µM | HCT-116 26.1 µM | SF-295 22.9 µM | ACHN 35.9 µM | SNB-19 44.2 µM | SK-MEL-5 20.7 µM | 786-0 22.2 µM | SW-620 47.2 µM | MOLT-4 19.1 µM | BT-549 24.1 µM | CAKI-1 25.9 µM | SR 24.8 µM | NCI/ADR-RES 25.7 µM | MDA-MB-435 20.5 µM | MDA-MB-231 32.7 µM | SF-268 45.1 µM | U-251 38.5 µM | HT-29 30.5 µM | EKVX 42 µM | MDA-N 20.7 µM | SK-MEL-2 26.6 µM | HL-60 31.8 µM | MCF7 35.8 µM | TK-10 33.6 µM | M14 17.5 µM | COLO 205 29.9 µM | UACC-257 21.2 µM | K562 35.8 µM | NCI-H226 > 100 µM | NCI-H522 20.7 µM | Malme-3M 18 µM | UO-31 34.6 µM | SN12C 27.5 µM | IGROV-1 36.1 µM | LOX IMVI 24.8 µM | SK-OV-3 55.8 µM | NCI-H23 25.9 µM | A498 52.8 µM

O=C1Nc2ccccc2/C1=N/Nc1ccc([N+](=O)[O-])cc1
30.3 µM: HCT-15
inactive: SK-MEL-28 41.3 µM | SNB-75 12.3 µM | A549 24.4 µM | DU-145 12.9 µM | RPMI-8226 24.8 µM | Hs-578T 9.06 µM | OVCAR-4 14.4 µM | OVCAR-8 11.5 µM | NCI-H460 30.1 µM | T47D 7.62 µM | PC-3 27.4 µM | RXF 393 15 µM | OVCAR-5 20.4 µM | HOP-62 14.6 µM | OVCAR-3 13.6 µM | UACC-62 28.8 µM | KM12 20.2 µM | HCT-116 20.7 µM | SF-295 16.9 µM | ACHN 13.5 µM | SNB-19 32.8 µM | SK-MEL-5 35.6 µM | 786-0 13.8 µM | SW-620 33.5 µM | MOLT-4 21.1 µM | BT-549 16.5 µM | CAKI-1 15.5 µM | SR 1.46 µM | NCI/ADR-RES 15.4 µM | MDA-MB-435 40.3 µM | MDA-MB-231 24.8 µM | SF-268 10.4 µM | U-251 30.3 µM | HT-29 61.8 µM | EKVX 8.93 µM | SF-539 3.83 µM | MDA-N 68.5 µM | HCC 2998 70.5 µM | SK-MEL-2 58.2 µM | HL-60 15.1 µM | MCF7 37.8 µM | TK-10 24 µM | M14 30.8 µM | COLO 205 93.5 µM | UACC-257 29.5 µM | K562 17 µM | NCI-H226 19.1 µM | NCI-H522 11.1 µM | Malme-3M 17.4 µM | UO-31 13.3 µM | SN12C 22.6 µM | IGROV-1 14.6 µM | LOX IMVI 21.5 µM | CCRF-CEM 22.4 µM | SK-OV-3 24.2 µM | NCI-H23 21.5 µM | A498 15.2 µM
